Measurements: patent publication EP0084677A1, “New compound having mucoregulating and fluidifying activity, process for its production and relative pharmaceutical compositions” (priority 1982, dated 1983)

Assays:
[1] = tested on: tracheo-bronchial mucus from rabbit; assay: Fluidifying activity "in vivo" (microviscosimeter on tracheo-bronchial mucus); details: 500 mg/kg/os
[2] = tested on: male rabbit; assay: Mucosecretolytic activity (technique of Giraldez et al.); format: in vivo; details: 500 mg/kg/os
[3] = tested on: male Wistar rat; assay: Bronchosecretogogue activity (method of Mawatari); format: in vivo; details: 500 mg/kg/os, FlNa = Sodium fluoresceine
[4] = tested on: Swiss mouse; assay: Acute toxicity (Litchfield and Wilcoxon method), mouse; format: in vivo
Description: (§1) The acute toxicity has been determined in Swiss mouse and in Wistar rat for different administra tion routes, according to the method of Litch- field J.T. and Wilcoxon LJ. Pharm. Exp. Therap. 96, 99-113 (1949)]. The results obtained are reported in the following Table I; from the same it can be pointed out how AFP 736 is endowed with a very low acute toxicity.

[5] = tested on: Wistar rat; assay: Acute toxicity (Litchfield and Wilcoxon method), rat; format: in vivo
Description: as §1

Compound	% Reduction of mucus viscosity [1]	% Increase of secretion in comparison with controls [2]	% Increase of FlNa in comparison with controls [3]	LD50 ([4]; i.p.)	LD50 ([4]; os)	LD50 ([5]; i.p.)	LD50 ([5]; os)
COc1ccccc1O [Guaiacol, 2-methoxyphenol]	4.1%						
CC1=CCC(C(C)(C)O)CC1O (centres unmarked) [Sobrerol, 2-methyl-5-(1-hydroxy-1-methyl-ethyl)-2-cyclohexen-1-ol]	15.6%	36.8%	33.4%				
5-[(2-metho xy-phenoxy) caxbonyloxy]- α,α, 4-trimethyl-3-cyclohexen-1-methanol [AFP 736]	32.2%	45.5%	79.3%	1750 mg/kg	3100 mg/kg	2340 mg/kg	>4000 mg/kg
COc1ccccc1OCC(O)CO (centres unmarked) [Guaiphe-nesine, guaiphenesin]			12.6%				
NC(CSCC(=O)O)C(=O)O (centres unmarked) [Carboxy-methylcysteine, carboxymethylcysteine]		40.2%	39.7%				
